Laboratory results reported in US12180187B2, “1-phenyl-5-azinylpyrazolyl-3-oxyalkyl acids and their use for controlling unwanted plant growth” (BAYER AKTIENGESELLSCHAFT, priority 2019, dated 2024).

How the values were obtained:
ECHCG [1] = assay: Post-emergence action against ECHCG, 1.28 kg/ha; format: in vivo, Echinochloa crus-galli; conditions: dosage 1280 g/ha, visual rating about 3 weeks after treatment vs untreated controls
Outline: (§1)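 Visual rating against untreated plants about 3 weeks after spraying gives % activity, where 0% means like controls and 100% means plants died. Plants were treated post-emergence at the one-leaf stage with compound formulated as wettable powder or emulsion concentrate, applied at 600 L water/ha plus 0.5% additive.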

AMARE [2] = assay: Post-emergence action against AMARE, 1.28 kg/ha; format: in vivo, Amaranthus retroflexus; conditions: dosage 1280 g/ha, visual rating about 3 weeks after treatment vs untreated controls (100% = plants died)
Outline: as §1

ECHCG [3] = assay: Pre-emergence action against ECHCG, 1280 g/ha; format: in vivo, Echinochloa crus-galli; conditions: visual scoring after about 3 weeks vs untreated controls, 100% = plants have died, 0% = like control plants
Outline: (§2)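 In greenhouse pots of sandy loam, sown weed seeds were covered with soil and treated pre-emergence with the compound in water (600 L/ha, 0.5% additive). Efficacy was assessed visually as percent of untreated control after about 3 weeks.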

AMARE [4] = assay: Pre-emergence action against AMARE, 1280 g/ha; format: in vivo, Amaranthus retroflexus; conditions: scored visually after about 3 weeks vs untreated controls (100% = plants have died)
Outline: as §2

ECHGC = assay: Pre-emergence action at 320 g/ha against ECHGC; format: in vivo, Echinochloa crus-galli; conditions: visual scoring after about 3 weeks vs untreated controls
Outline: (§3)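 Visual scoring in percent against untreated controls, about 3 weeks after treatment, where 100% means dead plants and 0% means no difference. Compounds were applied as aqueous suspension or emulsion (WP or EC, plus 0.5% additive) onto soil covering freshly sown seeds, at 600 l/ha water.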

SETVI [5] = assay: Pre-emergence action at 320 g/ha against SETVI; format: in vivo, Setaria viridis; conditions: visual scoring after about 3 weeks vs untreated controls
Outline: as §3

DIGSA [6] = assay: Post-emergence action against DIGSA, 1.28 kg/ha; format: in vivo, Digitaria sanguinalis; conditions: dosage 1280 g/ha, visual rating about 3 weeks after treatment vs untreated controls
Outline: as §1

ALOMY [7] = assay: Pre-emergence action against ALOMY, 1280 g/ha; format: in vivo, Alopecurus myosuroides; conditions: visual scoring after about 3 weeks vs untreated controls, 100% = plants have died, 0% = like control plants
Outline: as §2

AVEFA = assay: Pre-emergence action at 320 g/ha against AVEFA; format: in vivo; conditions: visual scoring after about 3 weeks vs untreated controls
Outline: as §3

VERPE [8] = assay: Post-emergence action against VERPE, 1.28 kg/ha; format: in vivo, Veronica persica; conditions: dosage 1280 g/ha, visual rating about 3 weeks after treatment vs untreated controls (100% = plants died)
Outline: as §1

ALOMY [9] = assay: Post-emergence action against ALOMY, 1.28 kg/ha; format: in vivo, Alopecurus myosuroides; conditions: dosage 1280 g/ha, visual rating about 3 weeks after treatment vs untreated controls
Outline: as §1

VIOTR = assay: Pre-emergence action at 320 g/ha against VIOTR; format: in vivo, Viola tricolor; conditions: dosage 320 g/ha
Outline: as §3

MATIN [10] = assay: Pre-emergence action against MATIN, 1280 g/ha; format: in vivo, Tripleurospermum inodorum (Matricaria inodora); conditions: scored visually after about 3 weeks vs untreated controls (100% = plants have died)
Outline: as §2

POAAN [11] = assay: Pre-emergence action against POAAN, 1280 g/ha; format: in vivo, Poa annua; conditions: visual scoring after about 3 weeks vs untreated controls, 100% = plants have died, 0% = like control plants
Outline: as §2

STEME = assay: Pre-emergence action against STEME, 1280 g/ha; format: in vivo, Stellaria media; conditions: scored visually after about 3 weeks vs untreated controls (100% = plants have died)
Outline: as §2

ABUTH [12] = assay: Post-emergence action against ABUTH, 1.28 kg/ha; format: in vivo, Abutilon theophrasti; conditions: dosage 1280 g/ha, visual rating about 3 weeks after treatment vs untreated controls (100% = plants died)
Outline: as §1

DIGSA [13] = assay: Pre-emergence action at 320 g/ha against DIGSA; format: in vivo, Digitaria sanguinalis; conditions: visual scoring after about 3 weeks vs untreated controls
Outline: as §3

ALOMY [14] = assay: Pre-emergence action at 320 g/ha against ALOMY; format: in vivo, Alopecurus myosuroides; conditions: scored visually after about 3 weeks vs untreated controls (100% = plants have died)
Outline: as §3

LOLRI [15] = assay: Pre-emergence action against LOLRI, 1280 g/ha; format: in vivo, Lolium rigidum; conditions: visual scoring after about 3 weeks vs untreated controls, 100% = plants have died, 0% = like control plants
Outline: as §2

MATIN [16] = assay: Pre-emergence action at 320 g/ha against MATIN; format: in vivo, Tripleurospermum inodorum (Matricaria inodora); conditions: visual scoring after about 3 weeks vs untreated controls
Outline: as §3

DIGSA [17] = assay: Pre-emergence action against DIGSA, 1280 g/ha; format: in vivo, Digitaria sanguinalis; conditions: visual scoring after about 3 weeks vs untreated controls, 100% = plants have died, 0% = like control plants
Outline: as §2

LOLRI [18] = assay: Post-emergence action against LOLRI, 1.28 kg/ha; format: in vivo, Lolium rigidum; conditions: dosage 1280 g/ha, visual rating about 3 weeks after treatment vs untreated controls
Outline: as §1

POLCO = assay: Pre-emergence action at 320 g/ha against POLCO; format: in vivo, Fallopia convolvulus (Polygonum convolvulus); conditions: visual scoring after about 3 weeks vs untreated controls
Outline: as §3

LOLRI [19] = assay: Pre-emergence action at 320 g/ha against LOLRI; format: in vivo, Lolium rigidum; conditions: visual scoring after about 3 weeks vs untreated controls
Outline: as §3

ABUTH [20] = assay: Pre-emergence action at 320 g/ha against ABUTH; format: in vivo, Abutilon theophrasti; conditions: greenhouse, scored visually after about 3 weeks vs untreated controls, 100% = plants have died, 0% = like control plants
Excerpt: b) Seeds of monocotyledonous and dicotyledonous weed plants and crop plants are placed in plastic or organic planting pots and covered with soil. The compounds of the invention, formulated in the form of wettable powders (WP) or as emulsion concentrates (EC), are then applied onto the surface of the covering soil as aqueous suspension or emulsion with addition of 0.5% additive at a water application rate of 600 l/ha (converted). After the treatment, the pots are placed in a greenhouse and kept under good growth conditions for the trial plants. After about 3 weeks, the effect of the preparations is scored visually in comparison with untreated controls as percentages. For example, 100% activity=the plants have died, 0% activity=like control plants. Tables 13 to 26 below show the effects of selected compounds of the general formula (I) on various harmful plants and at an application rate corresponding to 320 g/ha, which were obtained by the experimental procedure mentioned above.

POAAN [21] = assay: Post-emergence action against POAAN, 1.28 kg/ha; format: in vivo, Poa annua; conditions: dosage 1280 g/ha, visual rating about 3 weeks after treatment vs untreated controls
Outline: as §1

VERPE [22] = assay: Pre-emergence action at 320 g/ha against VERPE; format: in vivo, Veronica persica; conditions: visual scoring after about 3 weeks vs untreated controls
Outline: as §3

AMARE [23] = assay: Pre-emergence action at 320 g/ha against AMARE; format: in vivo, Amaranthus retroflexus; conditions: visual scoring after about 3 weeks vs untreated controls
Outline: as §3

SETVI [24] = assay: Pre-emergence action against SETVI, 1280 g/ha; format: in vivo, Setaria viridis; conditions: visual scoring after about 3 weeks vs untreated controls, 100% = plants have died, 0% = like control plants
Outline: as §2

VERPE [25] = assay: Pre-emergence action against VERPE, 1280 g/ha; format: in vivo, Veronica persica; conditions: scored visually after about 3 weeks vs untreated controls (100% = plants have died)
Outline: as §2

PHBPU = assay: Pre-emergence action at 320 g/ha against PHBPU; format: in vivo; conditions: visual scoring after about 3 weeks vs untreated controls
Outline: as §3

Row | Compound | Pre-emergence action against ECHGC in % (ECHGC) [%] | Pre-emergence action against SETVI in % (SETVI [5]) [%] | Pre-emergence action against AVEFA in % (AVEFA) [%] | Pre-emergence action against VIOTR in % (VIOTR) [%] | Pre-emergence action against DIGSA in % (DIGSA [13]) [%] | Pre-emergence action at 320 g/ha against ALOMY in % (ALOMY [14]) [%] | Pre-emergence action against MATIN in % (MATIN [16]) [%] | Pre-emergence action against POLCO in % (POLCO) [%] | Pre-emergence action against LOLRI in % (LOLRI [19]) [%] | Pre-emergence action at 320 g/ha against ABUTH in % (ABUTH [20]) [%] | Pre-emergence action against VERPE in % (VERPE [22]) [%] | Pre-emergence action against AMARE in % (AMARE [23]) [%] | also measured
1 | CON(C)C(=O)COc1nn(-c2ccccc2F)c(-c2ccc(F)nc2)c1Br [Example X-019] | 100 | 100 | 80 | 100 | 100 | 100 | 100 | 90 | 100 | 80 | 100 | 100 | Post-emergence action against ECHCG (ECHCG [1]): 100%; Post-emergence action against AMARE (AMARE [2]): 90%; Pre-emergence action against ECHCG (ECHCG [3]): 100%; Pre-emergence action against AMARE (AMARE [4]): 100%; Post-emergence action against DIGSA (DIGSA [6]): 90%; Pre-emergence action against ALOMY (ALOMY [7]): 100%; Post-emergence action against VERPE (VERPE [8]): 90%; Post-emergence action against ALOMY (ALOMY [9]): 100%; Pre-emergence action against MATIN (MATIN [10]): 100%; Pre-emergence action against POAAN (POAAN [11]): 100%; Pre-emergence action against STEME (STEME): 90%; Post-emergence action against ABUTH (ABUTH [12]): 90%; Pre-emergence action against LOLRI (LOLRI [15]): 100%; Pre-emergence action against DIGSA (DIGSA [17]): 100%; Post-emergence action against LOLRI (LOLRI [18]): 90%; Post-emergence action against POAAN (POAAN [21]): 100%; Pre-emergence action against SETVI (SETVI [24]): 100%; Pre-emergence action against VERPE (VERPE [25]): 90%
2 | CCOC(=O)CN(C)S(=O)(=O)NC(=O)COc1nn(-c2ccccc2F)c(-c2ccc(F)nc2)c1Br [Example X-031] | 80 | 100 | 80 | 90 | 100 | 90 | 80 | 80 | 80 | 80 | 90 | 90 | Pre-emergence action against PHBPU in % (PHBPU): 90%
